Reference: ChEMBL document CHEMBL1154433, “Synthesis of new substituted azetidinoyl and thiazolidinoyl-1,3,4-thiadiazino (6,5-b) indoles as promising anti-inflammatory agents” (Eur J Med Chem, 2008)

Legend:
[1] = system: Rattus norvegicus; assay: Antiinflammatory activity in albino Charles-Foster rat assessed as inhibition of carrageenan-induced paw oedema at 50 mg/kg, po measured before 1 hr and after 3 hrs of carrageenan challenge relative to control; format: functional
[2] = system: Mus musculus; assay: Analgesic activity in mouse assessed as protection against phenylquinone-induced writhing at 50 mg/kg, po administered 1 hr before phenylquinone challenge measured for 5 mins relative to control; format: functional
[3] = Acute toxicity in orally dosed albino mouse after 24 hrs; format: organism-based, albino Charles-Foster; conditions: in vivo, po, read-out: ALD50
[4] = target: Prostaglandin G/H synthase 1 (Homo sapiens) (UniProt P23219); assay: Inhibition of COX1; parameters: concentration or dose not given beside the values; conditions: concentration not given here
[5] = target: T1, Prostaglandin G/H synthase 2 (Homo sapiens) (UniProt P35354); assay: Inhibition of COX2; parameters: concentration or dose not given beside the values; conditions: concentration not given here
T1 sequence (whole entry): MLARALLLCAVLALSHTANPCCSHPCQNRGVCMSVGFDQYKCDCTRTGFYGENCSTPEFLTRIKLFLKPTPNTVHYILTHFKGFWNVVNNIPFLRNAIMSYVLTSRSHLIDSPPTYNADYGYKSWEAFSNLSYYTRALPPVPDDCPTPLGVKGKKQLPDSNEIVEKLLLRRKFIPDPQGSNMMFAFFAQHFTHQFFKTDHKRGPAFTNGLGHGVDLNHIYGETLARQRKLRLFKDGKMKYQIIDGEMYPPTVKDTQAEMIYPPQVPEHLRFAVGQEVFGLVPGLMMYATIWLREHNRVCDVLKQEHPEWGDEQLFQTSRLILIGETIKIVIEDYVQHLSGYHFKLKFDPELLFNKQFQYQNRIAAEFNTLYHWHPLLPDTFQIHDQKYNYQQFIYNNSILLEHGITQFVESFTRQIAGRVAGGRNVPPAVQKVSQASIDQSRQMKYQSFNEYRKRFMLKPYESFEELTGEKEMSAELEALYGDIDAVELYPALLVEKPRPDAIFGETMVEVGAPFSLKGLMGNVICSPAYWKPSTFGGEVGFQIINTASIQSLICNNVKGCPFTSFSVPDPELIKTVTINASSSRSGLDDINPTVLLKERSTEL

[6] = system: Rattus norvegicus; assay: Antiinflammatory activity in albino Charles-Foster rat assessed as inhibition of carrageenan-induced paw oedema at 5 mg/kg, po measured before 1 hr and after 3 hrs of carrageenan challenge relative to control; format: functional
[7] = system: Rattus norvegicus; assay: Antiinflammatory activity in albino Charles-Foster rat assessed as inhibition of carrageenan-induced paw oedema at 7.5 mg/kg, po measured before 1 hr and after 3 hrs of carrageenan challenge relative to control; format: functional
[8] = system: Rattus norvegicus; assay: Antiinflammatory activity in albino Charles-Foster rat assessed as inhibition of carrageenan-induced paw oedema at 10 mg/kg, po measured before 1 hr and after 3 hrs of carrageenan challenge relative to control; format: functional
[9] = system: Mus musculus; assay: Analgesic activity in mouse assessed as protection against phenylquinone-induced writhing at 5 mg/kg, po administered 1 hr before phenylquinone challenge measured for 5 mins relative to controll; format: functional
[10] = system: Mus musculus; assay: Analgesic activity in mouse assessed as protection against phenylquinone-induced writhing at 7.5 mg/kg, po administered 1 hr before phenylquinone challenge measured for 5 mins relative to controll; format: functional
[11] = system: Mus musculus; assay: Analgesic activity in mouse assessed as protection against phenylquinone-induced writhing at 10 mg/kg, po administered 1 hr before phenylquinone challenge measured for 5 mins relative to control; format: functional
[12] = system: Rattus norvegicus; assay: Antiinflammatory activity in albino Charles-Foster rat assessed as inhibition of carrageenan-induced paw oedema at 25 mg/kg, po measured before 1 hr and after 3 hrs of carrageenan challenge relative to control; format: functional
[13] = system: Rattus norvegicus; assay: Antiinflammatory activity in albino Charles-Foster rat assessed as inhibition of carrageenan-induced paw oedema at 100 mg/kg, po measured before 1 hr and after 3 hrs of carrageenan challenge relative to control; format: functional
[14] = system: Mus musculus; assay: Analgesic activity in mouse assessed as protection against phenylquinone-induced writhing at 25 mg/kg, po administered 1 hr before phenylquinone challenge measured for 5 mins relative to control; format: functional
[15] = system: Mus musculus; assay: Analgesic activity in mouse assessed as protection against phenylquinone-induced writhing at 100 mg/kg, po administered 1 hr before phenylquinone challenge measured for 5 mins relative to control; format: functional
[16] = Toxicity in 24 hrs fasted Albino rat assessed as ulcerogenic activity after 8 hrs; format: organism-based; conditions: in vivo, read-out: UD50

Sequence of Prostaglandin G/H synthase 1 (Homo sapiens) (P23219 whole entry): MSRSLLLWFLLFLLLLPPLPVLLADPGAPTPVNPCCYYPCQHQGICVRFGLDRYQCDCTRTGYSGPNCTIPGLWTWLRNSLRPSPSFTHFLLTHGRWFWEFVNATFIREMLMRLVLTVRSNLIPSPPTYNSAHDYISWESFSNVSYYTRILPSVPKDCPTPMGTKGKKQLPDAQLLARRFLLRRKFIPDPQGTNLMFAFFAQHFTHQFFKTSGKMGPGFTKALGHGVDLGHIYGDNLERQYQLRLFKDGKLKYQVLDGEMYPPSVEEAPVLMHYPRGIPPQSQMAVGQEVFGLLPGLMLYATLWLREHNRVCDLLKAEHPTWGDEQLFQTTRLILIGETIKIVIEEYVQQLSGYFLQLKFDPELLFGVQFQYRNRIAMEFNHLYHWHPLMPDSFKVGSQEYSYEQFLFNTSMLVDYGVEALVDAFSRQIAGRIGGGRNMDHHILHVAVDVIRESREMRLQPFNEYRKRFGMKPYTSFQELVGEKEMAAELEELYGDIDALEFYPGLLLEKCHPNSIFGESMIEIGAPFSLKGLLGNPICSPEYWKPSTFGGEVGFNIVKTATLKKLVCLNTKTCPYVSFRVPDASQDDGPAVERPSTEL

Row | SMILES | inhibition in vivo at 50 mg/kg [1] | Activity [2] | LD50 at 24 h [3] | inhibition [4] | inhibition [5] | other results
1 | Cc1ccc(/C=N/c2nnc(CNc3nnc4c5ccccc5nc-4s3)s2)cc1 | 20.7% | 12.67% | > 800 mg/kg | 23.1% | 25.4% | 
2 | C(=N\c1nnc(CNc2nnc3c4ccccc4nc-3s2)s1)/c1ccccc1 | 14.8% | 12.16% | > 800 mg/kg | 22.4% | 24.2% | 
3 | O=C1CSC(c2ccc(O)cc2)N1c1nnc(CNc2nnc3c4ccccc4nc-3s2)s1 (stereo not given) | 25.3% | 9.95% | > 800 mg/kg | 34.4% | 44% | 
4 | COc1ccc(/C=N/c2nnc(CNc3nnc4c5ccccc5nc-4s3)s2)cc1 | 22.4% | 15.67% | > 800 mg/kg | 26.2% | 29.4% | 
5 | O=C1C(Cl)C(c2ccccc2)N1c1nnc(CNc2nnc3c4ccccc4nc-3s2)s1 (stereo not given) | 30.6% | 21% | > 800 mg/kg | 37% | 74.6% | 
6 | CN(C)c1ccc(C2C(Cl)C(=O)N2c2nnc(CNc3nnc4c5ccccc5nc-4s3)s2)cc1 (stereo not given) | 33.6% | 22.67% | > 800 mg/kg | 37.2% | 65.8% | 
7 | COc1ccc(C2C(Cl)C(=O)N2c2nnc(CNc3nnc4c5ccccc5nc-4s3)s2)cc1 (stereo not given) | 31.6% | 21.27% | > 800 mg/kg | 39.5% | 66.3% | 
8 | COc1ccccc1C1C(Cl)C(=O)N1c1nnc(CNc2nnc3c4ccccc4nc-3s2)s1 (stereo not given) | 36.2% | 35% | > 800 mg/kg | 38.7% | 64.3% | 
9 | COc1ccc2c(c1)c(CC(=O)O)c(C)n2C(=O)c1ccc(Cl)cc1 [INDOMETHACIN] | 52.2% |  |  |  |  | inhibition in vivo at 5 mg/kg [6]: 52.2%; inhibition in vivo at 7.5 mg/kg [7]: 63.1%; inhibition in vivo at 10 mg/kg [8]: 93.2%; Activity [9]: 41.3%; Activity [10]: 59.25%; Activity [11]: 64.33%
10 | O=C1CSC(c2ccccc2Cl)N1c1nnc(CNc2nnc3c4ccccc4nc-3s2)s1 (stereo not given) | 38.5% | 24.67% | > 800 mg/kg | 43.1% | 45.4% | inhibition in vivo at 25 mg/kg [12]: 22.4%; inhibition in vivo at 100 mg/kg [13]: 44.5%; Activity [14]: 12.32%; Activity [15]: 36.36%; TD50 at 8 h [16]: 167 mg/kg
11 | COc1ccccc1C1SCC(=O)N1c1nnc(CNc2nnc3c4ccccc4nc-3s2)s1 (stereo not given) | 31.3% | 22.56% | > 800 mg/kg | 33.3% | 38.5% | 
12 | O=C1CSC(c2ccc(Cl)cc2)N1c1nnc(CNc2nnc3c4ccccc4nc-3s2)s1 (stereo not given) | 18.2% | 8.78% | > 800 mg/kg | 36.5% | 44.1% | 
13 | Clc1ccccc1/C=N/c1nnc(CNc2nnc3c4ccccc4nc-3s2)s1 | 26% | 18.66% | > 800 mg/kg | 28.7% | 34.4% | 
14 | Cc1ccc(C2C(Cl)C(=O)N2c2nnc(CNc3nnc4c5ccccc5nc-4s3)s2)cc1 (stereo not given) | 32.2% | 18.76% | > 800 mg/kg | 38.4% | 63.6% | 
15 | O=C1C(Cl)C(c2ccc(Cl)cc2)N1c1nnc(CNc2nnc3c4ccccc4nc-3s2)s1 (stereo not given) | 34.7% | 25.01% | > 800 mg/kg | 40.9% | 72.1% | 
16 | CN(C)c1ccc(C2SCC(=O)N2c2nnc(CNc3nnc4c5ccccc5nc-4s3)s2)cc1 (stereo not given) | 28.7% | 18% | > 800 mg/kg | 32.2% | 38.1% | 
17 | O=C1CSC(c2ccccc2)N1c1nnc(CNc2nnc3c4ccccc4nc-3s2)s1 (stereo not given) | 19.8% | 9.7% | > 800 mg/kg | 31.9% | 36.7% | 
18 | Oc1ccc(/C=N/c2nnc(CNc3nnc4c5ccccc5nc-4s3)s2)cc1 | 24.3% | 16.87% | > 800 mg/kg | 25.1% | 31.5% | 
19 | Clc1ccc(/C=N/c2nnc(CNc3nnc4c5ccccc5nc-4s3)s2)cc1 | 26% | 16.5% | > 800 mg/kg | 27.4% | 33.7% | 
20 | COc1ccc(C2SCC(=O)N2c2nnc(CNc3nnc4c5ccccc5nc-4s3)s2)cc1 (stereo not given) | 28.1% | 10.76% | > 800 mg/kg | 34.3% | 40.1% | 
21 | CN(C)c1ccc(/C=N/c2nnc(CNc3nnc4c5ccccc5nc-4s3)s2)cc1 | 21.4% | 14.28% | > 800 mg/kg | 24.2% | 26.4% | 
22 | COc1ccccc1/C=N/c1nnc(CNc2nnc3c4ccccc4nc-3s2)s1 | 23.2% | 22.23% | > 800 mg/kg | 24.1% | 26.7% | 
23 | CCCCC1C(=O)N(c2ccccc2)N(c2ccccc2)C1=O [PHENYLBUTAZONE] | 36.8% | 32.5% | > 800 mg/kg |  |  | inhibition in vivo at 25 mg/kg [12]: 26.8%; inhibition in vivo at 100 mg/kg [13]: 64.7%; Activity [14]: 14.26%; Activity [15]: 32.5%; TD50 at 8 h [16]: 54.6 mg/kg
24 | Cc1ccc(C2SCC(=O)N2c2nnc(CNc3nnc4c5ccccc5nc-4s3)s2)cc1 (stereo not given) | 37% | 22.08% | > 800 mg/kg | 33.4% | 36.3% | 
25 | O=C1C(Cl)C(c2ccccc2Cl)N1c1nnc(CNc2nnc3c4ccccc4nc-3s2)s1 (stereo not given) | 28.8% | 38% | > 800 mg/kg | 69.1% | 93.3% | inhibition in vivo at 25 mg/kg [12]: 28.8%; inhibition in vivo at 100 mg/kg [13]: 66.8%; Activity [14]: 19%; Activity [15]: 58%; TD50 at 8 h [16]: 133 mg/kg
26 | O=C1C(Cl)C(c2ccc(O)cc2)N1c1nnc(CNc2nnc3c4ccccc4nc-3s2)s1 (stereo not given) | 32.7% | 19.95% | > 800 mg/kg | 39.3% | 71.1% | 
